The assay has as its system RIN5F (Rat Insulinoma) cells. The assay can be described thus: In vitro glucose-dependent insulin secretion (RIN5F cell assay screening protocol). It counts as cell-based. The note with it: 16.7 mM glucose load. The protocol:
RIN5F (Rat Insulinoma) cells were cultured in RPMI 1640 medium supplemented with sodium pyruvate (1 mM) HEPES and Glucose (4.5 g/L) in a humidified incubator (5% CO2), at 37° C. After trypsinization, RIN5F cells were seeded at a concentration of 0.2×10^6 cells per well, in 12 well plates.
The buffer was replaced after 40 min. and the cells were incubated (37° C.) with the test peptidomimetics, at different concentration, for 30 min., both in the presence (16.7 mM) and absence (0 mM) of glucose load. The supernatant was collected and the insulin amount was measured by ultra sensitive Rat insulin ELISA kit (Crystal Chem, IL). The protein was estimated in the supernatant using Bicinchoninic Acid kit, according to the manufacturer's protocol (Sigma Aldrich, MO). The total insulin content obtained in Pico-gram (pg) was divided with the total protein (μg) in order to normalize for differences in cell density between wells.

Starred links: 1 amine or outer side, 2 acyl side, 3 side chain; linkers in the order of their positions; H or OH if unused. Non-standard residues stand in square brackets, D forms with d. Residues, ends and D or L forms follow the SMILES beside them. ξ: configuration not given here. *: point of attachment. X9 = CCc1cc(OC)ccc1-c1ccc(CC(NC(=S)[C@H](CC(=O)O)N*)C(=S)NC(CCCc2ccccc2F)C(N)=O)cc1; ξBip(2'-Et-4'-OMe) = CCc1cc(OC)ccc1-c1ccc(CC(N)C(=O)O)cc1; X6 = O=C(C(CCCc1ccc(Cl)cc1Cl)N[*:1])[*:2]; X10 = O=C(C(CCCc1ccc(F)cc1F)N[*:1])[*:2]; ξbishPhe(2-F) = NC(CCCc1ccccc1F)C(=O)O; ξαMePhe(2-F) = CC(N)(Cc1ccccc1F)C(=O)O; aThr = C[C@H](O)[C@H](N)C(=O)O; ξAbu(4-CN) = N#CCCC(N)C(=O)O; Aib = CC(C)(N)C(=O)O

As to `CCc1cc(OC)ccc1-c1ccc(CC(NC(=S)[C@H](CC(=O)O)NC(=O)[C@H](CO)NC(=O)[C@@H](NC(=O)C(C)(Cc2ccccc2F)NC(=O)[C@@H](NC(=O)CNC(=O)[C@H](CCC(N)=O)NC(=O)C(C)(C)NC(=O)[C@H](Cc2c[nH]cn2)NC(C)=O)[C@H](C)O)[C@H](C)O)C(=S)NC(CCCc2ccccc2F)C(N)=O)cc1` (stereo partly drawn) [compound 175] (Ac-H[Aib]QG[aThr][ξαMePhe(2-F)][aThr]S-X9), the Insulin secretion was 15.6 ± 0.33 pg/µg/h (0.1 nM test compd.), 21.8 ± 0.16 pg/µg/h (1 nM test compd.) and 35.6 ± 0.26 pg/µg/h (10 nM test compd.).
Take `CCc1cc(OC)ccc1-c1ccc(CC(NC(=O)[C@H](CC(=O)O)NC(=O)[C@H](CO)NC(=O)[C@@H](NC(=O)[C@H](Cc2ccccc2)NC(=O)[C@@H](NC(=O)CNC(=O)C(CCC#N)NC(=O)C(C)(C)NC(=O)[C@@H](N)Cc2c[nH]cn2)[C@@H](C)O)[C@@H](C)O)C(=O)NC(CCCc2ccc(Cl)cc2Cl)C(N)=O)cc1` (stereo partly drawn) [compound 83] (H-H[Aib][ξAbu(4-CN)]GTFTSD[ξBip(2'-Et-4'-OMe)][X6]-NH2): the Insulin secretion reads like this: (0.1 nM test compd.) 12.3 ± 0.33 pg/µg/h; (1 nM test compd.) 14.1 ± 0.36 pg/µg/h; (10 nM test compd.) 28.0 ± 0.16 pg/µg/h.
The like results for `CCc1cc(OC)ccc1-c1ccc(CC(NC(=O)[C@H](CC(=O)O)NC(=O)[C@H](CO)NC(=O)[C@@H](NC(=O)[C@H](Cc2ccccc2)NC(=O)[C@@H](NC(=O)CNC(=O)[C@H](CCC(N)=O)NC(=O)[C@H](CO)NC(=O)[C@@H](N)Cc2c[nH]cn2)[C@@H](C)O)[C@@H](C)O)C(=O)NC(CCCc2ccc(F)cc2C(F)(F)F)C(N)=O)cc1` (single isomer, unassigned) [compound 48] were, in that order, 12.9 ± 0.14 pg/µg/h, 15.8 ± 0.13 pg/µg/h and 29.9 ± 0.15 pg/µg/h.
`CCc1cc(OC)ccc1-c1ccc(CC(NC(=O)[C@H](CC(=O)O)NC(=O)[C@H](CO)NC(=O)[C@@H](NC(=O)C(C)(Cc2ccccc2F)NC(=O)[C@@H](NC(=O)CNC(=O)[C@H](CCC(N)=O)NC(=O)C(C)(C)NC(=O)[C@H](Cc2c[nH]cn2)NC(C)=O)[C@H](C)O)[C@H](C)O)C(=O)NC(CCCc2ccccc2F)C(N)=O)cc1` (single isomer, unassigned) [compound 103]: the Insulin secretion by setting is: (0.1 nM test compd.) 12.1 ± 0.51 pg/µg/h; (1 nM test compd.) 14.1 ± 0.19 pg/µg/h; (10 nM test compd.) 28.1 ± 0.29 pg/µg/h.
As for `CCc1cc(OC)ccc1-c1ccc(CC(NC(=O)[C@H](CC(=O)O)NC(=O)[C@H](CO)NC(=O)[C@@H](NC(=O)C(C)(Cc2ccccc2F)NC(=O)[C@@H](NC(=O)CNC(=O)[C@H](CCC(N)=O)NC(=O)C(C)(C)NC(=O)[C@@H](N)Cc2c[nH]cn2)[C@@H](C)O)[C@@H](C)O)C(=O)NC(CCCc2ccc(F)cc2F)C(N)=O)cc1` (stereo partly drawn) [compound 86] (H-H[Aib]QGT[ξαMePhe(2-F)]TSD[ξBip(2'-Et-4'-OMe)][X10]-NH2), the Insulin secretion was 12.3 ± 0.33 pg/µg/h (0.1 nM test compd.), 14.8 ± 0.16 pg/µg/h (1 nM test compd.) and 28.1 ± 0.22 pg/µg/h (10 nM test compd.).
The corresponding values for `CCc1cc(OC)ccc1-c1ccc(CC(NC(=O)[C@H](CC(=O)O)NC(=O)[C@H](CO)NC(=O)[C@@H](NC(=O)C(C)(Cc2ccccc2F)NC(=O)[C@@H](NC(=O)CNC(=O)[C@H](CCC(N)=O)NC(=O)C(C)(C)NC(=O)[C@@H](N)Cc2c[nH]cn2)[C@H](C)O)[C@@H](C)O)C(=O)NC(CCCc2ccccc2F)C(N)=O)cc1` (stereo partly drawn) [compound 111] (H-H[Aib]QG[aThr][ξαMePhe(2-F)]TSD[ξBip(2'-Et-4'-OMe)][ξbishPhe(2-F)]-NH2) are 16.2 ± 0.20 pg/µg/h, 22.2 ± 0.20 pg/µg/h and 36.1 ± 0.31 pg/µg/h.

The record behind these values is US8883963B2 (Cadila Healthcare Limited, priority 2007, dated 2014).
